Test results published in ChEMBL document CHEMBL4425183, “Gold catalyzed double condensation reaction: Synthesis, antimicrobial and cytotoxicity of spirooxindole derivatives” (Bioorg Med Chem Lett, 2016).
In brackets after ≈: the same amount, converted by molar mass.

Assays:
Candida albicans [1] = assay: Antifungal activity against Candida albicans MTCC 227 at 1 mg/disc after 48 hrs at 28 degC by disc diffusion method; assay type: functional
Malassezia pachydermatis = assay: Antifungal activity against Malassezia pachydermatis at 1 mg/disc after 48 hrs at 28 degC by disc diffusion method; assay type: functional
Candida albicans [2] = assay: Antifungal activity against Candida albicans MTCC 227 after 48 to 72 hrs at 28 degC by two fold serial dilution method; assay type: functional
Klebsiella aerogenes [3] = assay: Antibacterial activity against Enterobacter aerogenes MTCC 111 after 24 hrs at 37 degC by two fold serial dilution method; assay type: functional; details: MTCC 111, 24 h
Staphylococcus aureus [4] = assay: Antibacterial activity against Staphylococcus aureus MTCC 96 at 1 mg/disc after 24 hrs at 37 degC by disc diffusion method; assay type: functional
Salmonella typhimurium [5] = assay: Antibacterial activity against Salmonella typhimurium MTCC 1251 after 24 hrs at 37 degC by two fold serial dilution method; assay type: functional, Salmonella enterica subsp. enterica serovar Typhimurium; details: Salmonella enterica, MTCC 1251, 24 h
Salmonella typhimurium [6] = assay: Antibacterial activity against Salmonella typhimurium MTCC 1251 at 1 mg/disc after 24 hrs at 37 degC by disc diffusion method; assay type: functional, Salmonella enterica subsp. enterica serovar Typhimurium
Micrococcus luteus [7] = assay: Antibacterial activity against Micrococcus luteus MTCC 106 at 1 mg/disc after 24 hrs at 37 degC by disc diffusion method; assay type: functional
Klebsiella pneumoniae [8] = assay: Antibacterial activity against Klebsiella pneumoniae MTCC 109 after 24 hrs at 37 degC by two fold serial dilution method; assay type: functional; details: MTCC 109, 24 h
Bacillus subtilis [9] = assay: Antibacterial activity against Bacillus subtilis MTCC 441 after 24 hrs at 37 degC by two fold serial dilution method; assay type: functional; details: MTCC 441, 24 h
Shigella flexneri [10] = assay: Antibacterial activity against Shigella flexneri MTCC 1457 after 24 hrs at 37 degC by two fold serial dilution method; assay type: functional; details: MTCC 1457, 24 h
Klebsiella aerogenes [11] = assay: Antibacterial activity against Enterobacter aerogenes MTCC 111 at 1 mg/disc after 24 hrs at 37 degC by disc diffusion method; assay type: functional
[12] = system: Staphylococcus epidermidis; assay: Antibacterial activity against Staphylococcus epidermidis MTCC 3615 at 1 mg/disc after 24 hrs at 37 degC by disc diffusion method; assay type: functional
Staphylococcus aureus [13] = assay: Antibacterial activity against methicillin-resistant Staphylococcus aureus after 24 hrs at 37 degC by two fold serial dilution method; assay type: functional
Staphylococcus aureus [14] = assay: Antibacterial activity against methicillin-resistant Staphylococcus aureus at 1 mg/disc after 24 hrs at 37 degC by disc diffusion method; assay type: functional
Klebsiella pneumoniae [15] = assay: Antibacterial activity against Klebsiella pneumoniae MTCC 109 at 1 mg/disc after 24 hrs at 37 degC by disc diffusion method; assay type: functional
Bacillus subtilis [16] = assay: Antibacterial activity against Bacillus subtilis MTCC 441 at 1 mg/disc after 24 hrs at 37 degC by disc diffusion method; assay type: functional
Shigella flexneri [17] = assay: Antibacterial activity against Shigella flexneri MTCC 1457 at 1 mg/disc after 24 hrs at 37 degC by disc diffusion method; assay type: functional
Micrococcus luteus [18] = assay: Antibacterial activity against Micrococcus luteus MTCC 106 after 24 hrs at 37 degC by two fold serial dilution method; assay type: functional; details: MTCC 106, 24 h
[19] = system: Staphylococcus epidermidis; assay: Antibacterial activity against Staphylococcus epidermidis MTCC 3615 after 24 hrs at 37 degC by two fold serial dilution method; assay type: functional; details: MTCC 3615, 24 h
Staphylococcus aureus [20] = assay: Antibacterial activity against Staphylococcus aureus MTCC 96 after 24 hrs at 37 degC by two fold serial dilution method; assay type: functional; details: MTCC 96, 24 h
COLO 320 = assay: cells; details: Homo sapiens, COLO 320, read-out: GI
Description: Cytotoxicity against human COLO320 cells assessed as cell growth inhibition at 156 uM by MTT assay relative to control

CC(=O)N1CCN(c2ccc(OCC3COC(Cn4ccnc4)(c4ccc(Cl)cc4Cl)O3)cc2)CC1 (configuration not stated) [KETOCONAZOLE]
inhibition zone (IZ) (Candida albicans [1]): 28 mm | inhibition zone (IZ) (Malassezia pachydermatis): 26 mm | MIC (Candida albicans [2]): 25 µM (≈ 13.3 µg/mL)

CN[C@@H]1[C@H](O[C@H]2[C@H](O[C@H]3[C@H](O)[C@@H](O)[C@H](N=C(N)N)[C@@H](O)[C@@H]3N=C(N)N)O[C@@H](C)[C@]2(O)C=O)O[C@@H](CO)[C@H](O)[C@H]1O [STREPTOMYCIN]
MIC (Klebsiella aerogenes [3]): 25 µM (≈ 14.5 µg/mL) | inhibition zone (IZ) (Staphylococcus aureus [4]): 14 mm | MIC (Salmonella typhimurium [5]): 30 µM (≈ 17.4 µg/mL) | inhibition zone (IZ) (Salmonella typhimurium [6]): 18 mm | inhibition zone (IZ) (Micrococcus luteus [7]): 26 mm | MIC (Klebsiella pneumoniae [8]): 6.25 µM (≈ 3.63 µg/mL) | MIC (Bacillus subtilis [9]): 25 µM (≈ 14.5 µg/mL) | MIC (Shigella flexneri [10]): 6.25 µM (≈ 3.63 µg/mL) | inhibition zone (IZ) (Klebsiella aerogenes [11]): 22 mm | inhibition zone (IZ) [12]: 25 mm | MIC (Staphylococcus aureus [13]): 6.25 µM (≈ 3.63 µg/mL) | inhibition zone (IZ) (Staphylococcus aureus [14]): 30 mm | inhibition zone (IZ) (Klebsiella pneumoniae [15]): 20 mm | inhibition zone (IZ) (Bacillus subtilis [16]): 25 mm | inhibition zone (IZ) (Shigella flexneri [17]): 30 mm | MIC (Micrococcus luteus [18]): 6.25 µM (≈ 3.63 µg/mL) | MIC [19]: 25 µM (≈ 14.5 µg/mL) | MIC (Staphylococcus aureus [20]): 6.25 µM (≈ 3.63 µg/mL)

O=P1(N(CCCl)CCCl)NCCCO1 (configuration not stated) [CYCLOPHOSPHAMIDE ANHYDROUS]
inhibition of growth at 156 µM (COLO 320): 90%
